According to patent US5728684A, “Determination of prodrugs metabolizable by the liver and therapeutic use thereof” (priority 1994, dated 1998):
Entries after “also recorded” stand apart in the source; their conditions may differ. Read-outs that look alike come from different tables or passages of the source.

How the values were obtained:
[1] = tested on: aldehyde oxidase; conditions: cited from earlier work
[2] = molecular target: IPdR oxidase; test: Effect of inhibitors on the oxidation of IPdR to IUdR by liver homogenate; type: biochemical, rat; conditions: for IC50: liver homogenate, read-out: IC50 (concentration at 50% inhibition of the conversion of IPdR to IUdR); for product inhibition: at 50 mM
Experimental: (§1) Rat hepatic tissue was washed with ice-cold 1.15% KCl and blotted dry. The tissue was then homogenized with a tissue homogenizer, in a volume of 1.15% KCl that was 3 times the tissue weight, to form a 25% (w/v) homogenate. The homogenate was then centrifuged at 10,000 g for 10 minutes at 4° C. The resulting supernatant was filtered through Miracloth (similar to cheese cloth) then dialyzed overnight against 50 mM Tris-HCl buffer pH 7.5 and stored at -80° C. before use. Rat hepatocytes were obtained by a perfusion technique then the cells were extracted with 10 mM phosphate buffer, pH 7.5, containing 1M KCl and dialyzed for 4 hours against 50 mM Tris-HCl buffer pH 7.5.
(§2) For the standard assay condition, the reaction mixture contained 50 mM Tris-HCl, pH 7.5, 1 mM EDTA, 180 μM of IPdR (or its analogs) and approximately 0.01 mg protein of 10,000 g supernatant of tissue homogenate in a final volume of 500 μl and the incubation was at 37° C. for 10 minutes unless specified otherwise. 300 μl of reaction mixture was removed at the end of incubation and mixed with 630 μl acetonitrile then agitated. The precipitated protein were removed by centrifugation and the supernatant was lyophilized to dryness. The samples were reconstituted to the original aliquot volume with the HPLC mobile phase buffer and analyzed on a Alltech RP-18 column. IPdR, IUdR and IU were detected at a UV absorption wavelength of 230 nm, and IPdR was also detected at a UV absorption wavelength of 335 nm. The mobile phase was 10% acetonitrile/90%mM ammonium acetate, pH 6.8 and the flow rate was 1 ml/minute. Standard curves of IPdR and IUdR were established from the integration value of known concentrations.

[3] = tested on: aldehyde oxidase; test: Substrate specificity of the conversion of RPdR to RUdR; type: in vitro ADME, rat; conditions: for Conversion of RPdR to RUdR / Products of the reaction: substrate 180 μM; for Conversion of RPdR to RUdR: 2 to 4 separate experiments, in nmol/mg/min
Experimental: as §1, §2
(§3) Several 2-pyrimidinone deoxyribose analogs were examined for the conversion to their deoxyuridine counterparts. […] Nevertheless the relative Vmax for IPdR in the reaction at pH 7.5 and pH 9.5 is the same. […] The synthetic substrates for aldehyde oxidase appear to be better than its natural substrates, N^1 -methylnicotinamide and acetaldehyde, as judged by the potency of inhibition of N^1 -methylnicotinamide and acetaldehyde to the IPdR oxidation reaction (Table IV). The rate of reactivity of the liver enzyme with different IPdR analogs follows the order EPdR, IP, IPdR, 5-bromo-2-pyrimidinone deoxyribose (BPdR) and 5-methyl-2-pyrimidinone deoxyribose (MPdR) or 5-ethyl-2-pyrimidinone deoxyribose (EtPdR) (Table V). Electronegative substituents in the 5-position seemed to increase the substrate activity in this oxidation reaction.
Substrate specificity of the conversion of […]

[4] = cited from earlier work; for catabolism to the free base: followed by dehalogenation; for cytotoxicity limiting effective use as radiosensitizer: in vivo
[5] = Michaelis constant / Vmax of 2-pyrimidinone deoxyribose analogs with the liver enzyme; type: biochemical, rat; conditions: rat, liver aldehyde oxidase
Experimental: as §1, §2, §3

[6] = tested on: hepatic aldehyde oxidase; test: Conversion of prodrugs to active compound in vivo
Description: (§4) As most nucleosides and nucleoside bases include keto groups in their formula and many are structurally related to the structure of uracil, it is expected that bio-affecting compounds which are analogs of nucleosides and nucleoside bases are prime candidates for bio-affecting compounds for which prodrugs in accordance with the present invention can be designed, metabolizable by hepatic aldehyde oxidase into such compounds. Thus, in addition to uracil and uridine analogs, analogs of other nucleosides and nucleoside bases, such as cytidine, guanosine, 6-azauridine and 8-azaguanine analogs, may be used as the basis of the formation of prodrugs in accordance with the present invention. Examples of bio-affecting compounds in this category include ddG, DHPG, ACV, ddI, D4T and AZT.

[7] = tested on: P388-R leukemia cells; test: Survival time of mice bearing P388-R leukemia cells; type: in vivo, mouse; conditions: for Cures/Total / ILS (increase in life span over controls): daily on Day 1,2,3,4,5
Experimental: (§5) Mice were injected with 100,000 P388-R leukemia cells to induce a leukemia. These cells were resistant to Adriamycin. Daily treatments of 25 and 50 mg/kg FU and 50 and 100 mg/kg FP were given orally to these leukemic mice and the duration of survival was measured. The results are given in tabular and graphic form in Table VII and FIG. 4.
Inoculum: 10^6 P388R cells into each mouse (i.p.)

[8] = tested on: leukemia and colon cancer; test: Therapeutic effectiveness of FP versus FU in leukemia and colon cancer; type: in vivo, mouse; conditions: oral FP
Description: There are other occasions besides the treatment of liver-associated diseases when the administration of a prodrug will be preferred to the administration of the bio-affecting compound which is formed from such prodrugs. For example, many drugs are not orally administrable for any of a variety of reasons. Oral administration of a prodrug from which the active compound is released in the liver will avoid most of the disadvantages of oral administration of the active compound. Thus, for example, FU is a well-known anti-cancer drug which cannot be administered orally. FP is a prodrug which is metabolizabie by hepatic aldehyde oxidase to FU. FP may be given orally to a subject.
as §5
(§6) Mice were injected with colon 38 cells and were either not treated or treated with daily treatments of 25 and 50 mg/kg FU and 50 and 100 mg/kg FP were given orally to the mice and the change in tumor weight was measured over time.

[9] = tested on: hepatic aldehyde oxidase; test: Metabolism of prodrugs by hepatic aldehyde oxidase in vitro / in vivo; type: in vitro ADME
Description: as §4

[10] = Toxicity of FU and FP in BDF1 mice; type: in vivo; conditions: mouse, in vivo, po, daily, Day 1,2,3,4,5
Experimental: (§7) BDF1 mice were administered daily oral dosages of either 50, 75 or 100 mg/kg of FU or 100, 150 or 200 mg/kg of FP. The survival rates of each are presented in chart and graphic forms in Table VI and FIGS. 2 and 3.

[11] = tested on: BDF1 mice; test: Toxicity of FU and FP in BDF1 mice; type: in vivo; conditions: for Death/Total: Day 1,2,3,4,5
Experimental: as §7

[12] = tested on: Transgenic mice; test: Treatment of transgenic mice expressing SV40 large tumor antigen; type: in vivo, mouse
Experimental: Transgenic mice obtained according to the method of Sepulveda et al., Cancer Research 49:6108-6117 (1989) were administered beginning at nine weeks after birth in a female and male, wherein the treatment group received 100 mg/kg two times per day, once per week.

[13] = tested on: colon 38 cells; test: Colon 38 tumor weight in mice; type: in vivo, mouse; conditions: FU 25 and 50, FP 50 and 100 mg/kg daily oral
Experimental: as §6

[14] = tested on: metastatic prostate cancer; conditions: cited from earlier work

SMILES: O[C@H](CS)[C@H](O)CS (racemic) [Dithiothreitol]
- inhibition of aldehyde oxidase activity ([1]; literature): could be inhibited
- IC50 [2]: 100 µM

SMILES: CCCCS [1-Butane thiol]
- product inhibition [2]: Approximately 25%
- IC50 [2]: > 50000 µM

SMILES: CC=O [Acetaldehyde]
- inhibition of aldehyde oxidase activity ([1]; literature): inhibited by acetaldehyde
- IC50 [2]: 5000 µM

SMILES: O=c1ncc(Br)cn1[C@H]1C[C@H](O)[C@@H](CO)O1 [BPdR, 5-bromo-2-pyrimidinone-deoxyribose]
- Conversion of RPdR to RUdR [3]: 7 ± 2

SMILES: O=c1[nH]c(=O)n([C@H]2C[C@H](O)[C@@H](CO)O2)cc1Br [BUdR, 5-bromo-deoxyuridine]
- catabolism to the free base [4]: rapid catabolism
- cytotoxicity limiting effective use as radiosensitizer [4]: limited by their cytotoxicity

SMILES: N[C@@H](CS)C(=O)O [Cysteine]
- inhibition of aldehyde oxidase activity ([1]; at 5 mM): no significant inhibition
- inhibition of aldehyde oxidase activity ([1]; at 50 mM): potent inhibition
- product inhibition [2]: Approximately 40%
- IC50 [2]: > 50000 µM

SMILES: C#Cc1cnc(=O)n([C@H]2C[C@H](O)[C@@H](CO)O2)c1 [EPdR, 5-ethynyl-2-pyrimidinone-deoxyribose]
- Km ([5]; pH 7.5): 77 µM
- Km ([5]; pH 9.5): 46 µM
- Conversion of RPdR to RUdR [3]: 20 ± 4

SMILES: CCc1cnc(=O)n([C@H]2C[C@H](O)[C@@H](CO)O2)c1 [EtPdR, 5-ethyl-2-pyrimidinone-deoxyribose]
- Products of the reaction [3]: not detected
- Conversion of RPdR to RUdR [3]: < 0.1

SMILES: Oc1ncc(F)cn1 [FP, 5-fluoro-2-pyrimidinone]
- metabolism to FU by hepatic aldehyde oxidase in vivo [6]: metabolizable to FU
- Conversion of RPdR to RUdR [3]: 20
- Cures/Total ([7]; 50 mg/kg oral): 0/5
- ILS (increase in life span over controls) ([7]; 50 mg/kg oral): 0%
- Cures/Total ([7]; 100 mg/kg oral): 0/5
- ILS (increase in life span over controls) ([7]; 100 mg/kg oral): 30%
- survival time using FP compared to FU ([7]; FU 25 and 50, FP 50 and 100 mg/kg oral): as long using FP compared to FU
- effectiveness of FP compared with FU [8]: essentially the same as FU
- metabolism to FU by hepatic aldehyde oxidase in vitro [9]: metabolizable to FU
- LD50 [10]: 180 mg/kg
- Death/Total ([11]; 100 mg/kg p.o.): 5/5
- Death/Total ([11]; 150 mg/kg p.o.): 4/5
- Death/Total ([11]; 200 mg/kg p.o.): 0/5
- toxicity of FP compared with FU ([11]; oral, even when higher dosages were administered): considerably less
- weight gain, male and female ([12]; after week 13): significantly decreased weight gain
- body weight increase, female ([12]; female, 100 mg/kg two times per day, once per week): slower increase in body weight
- survival, female ([12]; female, versus control, which died at week 16): lived longer; also recorded: survived the control rat
- body weight increase, male ([12]; male, 100 mg/kg two times per day, once per week): slower increase in body weight
- survival, male ([12]; male, inferred from slower body weight increase): longer survival than control
- reduction in tumor size or reduction in its growth rate, FU versus FP [13]: comparable between FU and FP

SMILES: O=c1[nH]cc(F)c(=O)[nH]1 [FU, 5-fluoro uracil, reference compound]
- Cures/Total ([7]; 25 mg/kg oral): 0/5
- ILS (increase in life span over controls) ([7]; 25 mg/kg oral): 5%
- Cures/Total ([7]; 50 mg/kg oral): 0/5
- ILS (increase in life span over controls) ([7]; 50 mg/kg oral): 25%
- LD50 [10]: 70 mg/kg
- Death/Total ([11]; 50 mg/kg p.o.): 5/5
- Death/Total ([11]; 75 mg/kg p.o.): 2/5
- Death/Total ([11]; 100 mg/kg p.o.): 1/5
- reduction in tumor size or reduction in its growth rate, FU versus FP [13]: comparable between FU and FP

SMILES: OO [Hydrogen peroxide]
- IC50 [2]: 10000 µM

SMILES: NO [Hydroxyl amine]
- IC50 [2]: 1000 µM

SMILES: O=c1ncc(I)c[nH]1 [IP, 5-iodo-2-pyrimidinone]
- substrate quality for aldehyde oxidase ([3]; in words): excellent substrate
- Conversion of RPdR to RUdR [3]: 18 ± 3

SMILES: O=c1[nH]c(=O)n([C@H]2C[C@H](O)[C@@H](CO)O2)cc1I [IUdR, iodo-deoxyuridine]
- catabolism to the free base [4]: rapid catabolism
- cytotoxicity limiting effective use as radiosensitizer [4]: limited by their cytotoxicity
- systemic toxicity limiting clinical usage ([4]; systemic use): limited its clinical usage

SMILES: Cc1cnc(=O)n([C@H]2C[C@H](O)[C@@H](CO)O2)c1 [MPdR, 5-methyl-2-pyrimidinone-deoxyribose]
- Products of the reaction [3]: not detected
- Conversion of RPdR to RUdR [3]: < 0.1

SMILES: OCCS [Mercaptoethanol, 2-mercaptoethanol]
- inhibition of aldehyde oxidase activity ([1]; literature): could be inhibited
- IC50 [2]: 1800 µM

SMILES: C[n+]1cccc(C(N)=O)c1 [N^1 -methylnicotinamide]
- conversion by hepatic aldehyde oxidase ([1]; to N1-methyl-2-pyridone-5-carboxamide and N1-methyl-4-pyridone-3-carboxamide): converts N^1 -methylnicotinamide
- IC50 [2]: 1000 µM

SMILES: CCCC(C(=O)OCCN(CC)CC)(c1ccccc1)c1ccccc1 [SKF-525A]
- IC50 [2]: 30 µM

SMILES: NC(CO)(CO)CO [Tris buffer]
- stimulation of aldehyde oxidase activity ([1]; literature): stimulated by potassium ferricyanide and Tris buffer

SMILES: Cc1ccc(C(=O)Nc2ccc(S(=O)(=O)O)c3cc(S(=O)(=O)O)cc(S(=O)(=O)O)c23)cc1NC(=O)c1cccc(NC(=O)Nc2cccc(C(=O)Nc3cc(C(=O)Nc4ccc(S(=O)(=O)O)c5cc(S(=O)(=O)O)cc(S(=O)(=O)O)c45)ccc3C)c2)c1 [suramin]
- effectiveness of bolus dosages ([14]; bolus): significantly less effective
- effective anti-cancer dosage relative to dosage resulting in paralysis ([14]; human trials, metastatic prostate cancer): very close to the dosage resulting in paralysis
